This note sets out measurements from patent US6903132B2, “Non-peptide GnRH agents, pharmaceutical compositions and methods for their use” (Agouron Pharmaceuticals, Inc., priority 2002, dated 2005).

One may read the Tmax as the time at which the peak concentration occurs.

Values joined by “and” are separate entries in the source; they are usually repeats but may differ in a detail not shown here. Identical values can stand only once.

The nature of data set [1]: Pharmacokinetics in male rats. The settings on record: for M T1/ hr: male rats (MR); for M T1/ hr / Tmax: dosed orally at 50 mg/kg; for M Fp. / Tmax: male rats; for M Fp.: oral bioavailability, AUCp.o./AUCi.v.; for Tmax: rat, plasma, po, read-out: MR Tmax hr. The data set is classed as in vivo, rat. As for the experimental part: Rats (male or female, 200-225 g) are prepared with indwelling jugular vein cannula as described by Harms et al., Applied Physiol. 36:391-398 (1974), and allowed to recover overnight with free access to the standard vivarium chow and water. The compounds are administered to female rats at 5 mg/kg i.v. and 10 mg/kg p.o. as solutions in 10% DMSO+10% cremophor+80% saline or 10% cremophor+90% saline. The male rats are dosed orally at 50 mg/kg in the vehicles specified in Table 3. The blood samples are withdrawn at specific times, plasma is immediately separated and compound extracted with ethyl acetate. The samples are analyzed by LC-MS using 30-90% gradient of ACN in 50 mM ammonium acetate.
(§1) The pharmacokinetic parameters are calculated using WinNonlin software (Scientific Consulting Inc.). The bioavailability is calculated as AUCp.o./AUCi.v., where AUCp.o. and AUCi.v. are areas under the plasma concentration-time curve after oral and i.v. administration, respectively.

Data set [2] is described as follows: In vitro metabolism: disappearance of parent compound in liver microsomes (male rat). Type of data set: in vitro ADME. Particulars: 5 uM compound, 0.5 mg/ml microsomal protein, 2 mM NADPH, 30 minutes at 37° C. The protocol:
(§2) Human, rat, dog, and monkey liver microsomes are isolated by differential centrifugation. Specimens of human liver were obtained from the International Institute for the Advancement of Medicine (Scranton, Pa.). The disappearance of the parent compound is studied in a mixture containing 5 uM compound, 0.5 mg/ml microsomal protein, and 2 mM NADPH in 50 mM K Phosphate buffer, pH 7.4. Samples are incubated for 30 minutes at 37° C. The reaction is terminated by the addition of acetonitrile and compounds analyzed by LC-MS as described above.
(Microsomes from liver hold many membrane-bound enzymes, among them those of drug oxidation.)

Data set [3] is described as follows: In vitro metabolism: disappearance of parent compound in liver microsomes (female rat). Type of data set: in vitro ADME. Particulars: 5 uM compound, 0.5 mg/ml microsomal protein, 2 mM NADPH, 30 minutes at 37° C. The protocol:
as §2

Data set [4] in a line: In vitro metabolism: disappearance of parent compound in liver microsomes. The data set is classed as in vitro ADME. The settings on record: human liver microsomes; 5 uM compound, 0.5 mg/ml microsomal protein, 2 mM NADPH, 30 minutes at 37° C. As for the experimental part: as §2
Data set [5] is described as follows: Pharmacokinetics in female rats. The data set is classed as in vivo, rat. The settings on record: for FR Fp.o.: 20 mg/kg as 10 mg/ml solution in 10% DMSO 10% cremophor 80% saline, AUCp.o./AUCi.v.; for Tmax: rat, plasma, po, dose and vehicle per footnote, read-out: FR Tmax hr. As for the experimental part:
Rats (male or female, 200-225 g) are prepared with indwelling jugular vein cannula as described by Harms et al., Applied Physiol. 36:391-398 (1974), and allowed to recover overnight with free access to the standard vivarium chow and water. […] […] The blood samples are withdrawn at specific times, plasma is immediately separated and compound extracted with ethyl acetate. The samples are analyzed by LC-MS using 30-90% gradient of ACN in 50 mM ammonium acetate.
as §1

Regarding `COc1cc2c(cc1Cc1ccc(C(=O)NNc3cc(C)c4c(C)nn(C)c4n3)o1)C(C)(C)CCC2(C)C` [Example C2, 5-[(3-Methoxy-5,5,8,8-tetramethyl-5,6,7,8-tetrahydro-2-naphthalenyl)methyl]-N′-(1,3,4-trimethyl-1H-pyrazolo[3,4-b]pyridin-6-yl)-2-furohydrazide], in data set [1], the “M T1/ hr” value is 1.2 h, the “M Fp.” value stood at 4% and the Tmax was found to be 1 h. Also, the “Male t % p. 30′” value in data set [2] is 97%. Also, the “Fem. t % rem. 30′” value in data set [3] came to 18%. Besides, in data set [4], the “Huma % p. 30′” value stood at 40%. Also, in data set [5], the “FR Fp.o.” value stood at 15%^1 and the Tmax was 2 h.
On to `Cc1cc2c(cc1Cc1ccc(C(=O)NNc3cc(C)c4c(C)nn(C)c4n3)o1)C(C)(C)CCC2(C)C` [Example C1, 5-[(3,5,5,8,8-Pentamethyl-5,6,7,8-tetrahydro-2-naphthalenyl)methyl]-N′-(1,3,4-trimethyl-1H-pyrazolo[3,4-b]pyridin-6yl)-2-furohydrazide], for which, in data set [1], the “M T1/ hr” value was 1.3 h, the “M Fp.” value was 1% and the time of peak concentration (Tmax) worked out at 1 h. Also, in data set [2], the “Male t % p. 30′” value stood at 99%. For the same molecule, the “Huma % p. 30′” value in data set [4] was 63% and 54% and 37% and 38%. For the same molecule, in data set [5], the “FR Fp.o.” value was 19%^1 and the Tmax turned out to be 1 h.
